According to PMC3662788, “The Catalytic Roles of P185 and T188 and Substrate-Binding Loop Flexibility in 3α-Hydroxysteroid Dehydrogenase/Carbonyl Reductase from Comamonas testosteroni” (PLoS ONE, 2013):
Where “and” joins values, the source holds several entries; their conditions need not be identical. Equal entries are not always repeated.

Key:
[1] = biological target: T1, wild-type 3α-HSD/CR (Comamonas testosteroni, UniProt P80702)
T1 sequence (P80702 1-257): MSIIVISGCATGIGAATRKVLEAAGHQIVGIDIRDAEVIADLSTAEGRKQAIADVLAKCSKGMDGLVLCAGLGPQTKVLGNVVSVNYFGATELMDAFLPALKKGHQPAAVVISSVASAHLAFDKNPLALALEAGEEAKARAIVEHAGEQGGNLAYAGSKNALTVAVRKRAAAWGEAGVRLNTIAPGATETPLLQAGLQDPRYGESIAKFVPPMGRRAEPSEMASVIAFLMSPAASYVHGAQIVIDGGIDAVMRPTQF

[2] = biological target: T2, T188S mutant 3α-HSD/CR (Comamonas testosteroni, UniProt P80702, T188S); test: biochemical; assay type: biochemical
T2 construct: His-tag (inferred from pET15b vector and Ni-NTA purification) (N); made in house; host or cells: Escherichia coli BL21(DE3)
Excerpt: (§1) All reactions were initiated by the addition of an enzyme.
(§2) The data were fitted to Equation 2.

[3] = biological target: T3, T188A mutant 3α-HSD/CR (Comamonas testosteroni, UniProt P80702, T188A); test: biochemical; assay type: biochemical
T3 construct: His-tag (inferred from pET15b vector and Ni-NTA purification) (N); made in house; host or cells: Escherichia coli BL21(DE3)
Excerpt: as §1, §2

[4] = biological target: T4, P185A mutant 3α-HSD/CR (Comamonas testosteroni, UniProt P80702, P185A); test: Steady-state kinetics and primary isotope effects, oxidation of androsterone with NAD^+
T4 sequence (P80702 1-257 P185A): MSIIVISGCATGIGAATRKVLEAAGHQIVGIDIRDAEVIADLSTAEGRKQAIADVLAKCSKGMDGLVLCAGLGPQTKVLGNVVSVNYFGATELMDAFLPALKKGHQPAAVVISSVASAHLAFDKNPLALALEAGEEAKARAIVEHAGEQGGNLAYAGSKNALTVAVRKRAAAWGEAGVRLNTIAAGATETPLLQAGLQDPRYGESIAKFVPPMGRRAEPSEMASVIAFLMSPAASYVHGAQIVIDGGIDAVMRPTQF
Excerpt: as §1, §2

[5] = biological target: T1, wild-type 3α-HSD/CR; details: cited from earlier work
[6] = biological target: T1, wild-type 3α-HSD/CR; details: WT; pH 10.5; obtained from Table 1
Excerpt: as §1, §2

[7] = substrate: NC(=O)c1ccc[n+]([C@@H]2O[C@H](COP(=O)([O-])OP(=O)(O)OC[C@H]3O[C@@H](n4cnc5c(N)ncnc54)[C@H](O)[C@@H]3O)[C@@H](O)[C@H]2O)c1; test: purified protein, by the assay type; details: other: P185A, 0.1 M Caps pH 10.5, 25°C
[8] = P185A, 0.1 M Caps pH 10.5, 25°C
[9] = WT, labeled vs unlabeled androsterone, 1.7 mM NAD^+, pH 10.5

T3 sequence (P80702 whole entry T188A): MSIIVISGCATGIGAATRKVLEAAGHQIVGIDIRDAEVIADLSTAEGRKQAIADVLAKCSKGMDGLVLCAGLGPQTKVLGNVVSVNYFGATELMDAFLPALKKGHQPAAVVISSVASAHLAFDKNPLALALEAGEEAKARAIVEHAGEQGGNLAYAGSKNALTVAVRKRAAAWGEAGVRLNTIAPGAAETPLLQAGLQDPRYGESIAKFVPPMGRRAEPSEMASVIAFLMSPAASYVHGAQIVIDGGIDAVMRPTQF
T2 sequence (P80702 whole entry T188S): as the sequence (P80702 whole entry T188A) above, with A188S counted along it

Molecule: [2H]C1(O)CCC2(C)C(CCC3C4CCC(=O)C4(C)CCC32)C1 (stereo not drawn) [deuterated androsterone, [3α-^2H]Androsterone]
- apparent rate constant (kobs) for the deuteride transfer ([1]; 1 µM WT, 1 mM NAD^+, 17.5 µM deuterated androsterone, 0.1 M Caps pH 10.5, 25°C): 309 s⁻¹

Molecule: NC(=O)c1ccc[n+]([C@@H]2O[C@H](COP(=O)([O-])OP(=O)(O)OC[C@H]3O[C@@H](n4cnc5c(N)ncnc54)[C@H](O)[C@@H]3O)[C@@H](O)[C@H]2O)c1 [NAD^+]
- Ki [2]: 1600 ± 300 µM
- ΔΔGbmut/wt (differential ground-state binding energy, enzyme-NAD^+ complex) ([2]; T188S vs wild-type, pH 10.5, Equation 4): 1.9 kcal/mol
- Ki [3]: 1400 ± 200 µM
- ΔΔGbmut/wt (differential ground-state binding energy, enzyme-NAD^+ complex) ([3]; T188A vs wild-type, pH 10.5, Equation 4): 1.8 kcal/mol
- Ki [4]: 1000 ± 300 µM
- ΔΔGbmut/wt (differential ground-state binding energy, enzyme-NAD^+ complex) ([4]; P185A vs wild-type, pH 10.5, Equation 4): 1.7 kcal/mol
- kcat/Ka (NAD^+) [4, 8]: 4.7e+06 ± 1.1e+06 M⁻¹ s⁻¹
- Ka (Michaelis constant of NAD^+) ([5]; WT, 0.1 M Caps pH 10.5): 121 ± 26 µM
- Ki ([5]; read-out: Kia (inhibition constant of NAD^+), WT, 0.1 M Caps pH 10.5): 60 ± 30 µM

Molecule: C[C@]12CC[C@@H](O)C[C@@H]1CC[C@@H]1[C@@H]2CC[C@]2(C)C(=O)CC[C@@H]12 [androsterone, Androsterone]
- ΔΔG^‡ mut/wt (differential transition-state binding energy) ([2]; T188S vs wild-type, pH 10.5, Equation 5): 2.0 kcal/mol
- kcat ([2]; T188S, 0.1 M Caps pH 10.5, 25°C): 1414 ± 149 s⁻¹
- kcat/KiaKb (kcat/KiNADKandrosterone) ([2]; T188S, pH 10.5, obtained from Table 1): 1.4×10^4 mM^−2s^−1
- ΔΔG^‡ mut/wt (differential transition-state binding energy) ([3]; T188A vs wild-type, pH 10.5, Equation 5): 1.9 kcal/mol
- kcat ([3]; T188A, 0.1 M Caps pH 10.5, 25°C): 1200 ± 133 s⁻¹
- kcat/KiaKb (kcat/KiNADKandrosterone) ([3]; T188A, pH 10.5, obtained from Table 1): 1.7×10^4 mM^−2s^−1
- increase of Kandrosterone relative to wild-type ([3]; mutation of T188 (T188A), pH 10.5): 14 fold
- kcat/KiaKb (kcat/KiNADKandrosterone) [6]: 42 ×10^4 mM^−2s^−1
- ΔΔG^‡ mut/wt (differential transition-state binding energy) ([4]; P185A vs wild-type, pH 10.5, Equation 5): 0.96 kcal/mol
- kcat [4, 8]: 916 ± 61 s⁻¹
- increase of kcat/Kandrosterone relative to wild-type ([4]; P185A, pH 10.5): 3 fold
- kcat/KiaKb (kcat/KiNADKandrosterone) ([4]; P185A, pH 10.5, obtained from Table 1): 8.3×10^4 mM^−2s^−1
- minimum rate constant for hydride transfer from undeuterated androsterone to NAD^+ ([1]; calculated from kobs 309 s^−1 and ^D(Vmax/Kandrosterone) 1.8): ≥ 556 s⁻¹
- kcat ([5]; WT, 0.1 M Caps pH 10.5): 100 ± 8 s⁻¹
- ^D(V/K b) (primary kinetic isotope effect on Vmax/Kandrosterone) [5, 9]: 1.8 and 1.8±0.2
- ^DV (primary kinetic isotope effect on Vmax) [5, 9]: 1
- ^D2OVmax (solvent kinetic isotope effect) ([5]; wild-type): 2.1

B1: P185A mutant 3α-HSD/CR (Comamonas testosteroni; P185A) (protein)
chain: MSIIVISGCATGIGAATRKVLEAAGHQIVGIDIRDAEVIADLSTAEGRKQAIADVLAKCSKGMDGLVLCAGLGPQTKVLGNVVSVNYFGATELMDAFLPALKKGHQPAAVVISSVASAHLAFDKNPLALALEAGEEAKARAIVEHAGEQGGNLAYAGSKNALTVAVRKRAAAWGEAGVRLNTIAAGATETPLLQAGLQDPRYGESIAKFVPPMGRRAEPSEMASVIAFLMSPAASYVHGAQIVIDGGIDAVMRPTQF
- Km [7]: 195 ± 55 µM
